Experimental data published in PMC7921015, “Spatiotemporal GLP-1 and GIP receptor signaling and trafficking/recycling dynamics induced by selected receptor mono- and dual-agonists” (Molecular Metabolism, 2021).

Legend:
[1] = target: Human GIPR-turbo GFP (human) (UniProt P48546)
[2] = target: Human GLP-1R-GFP (human) (UniProt P43220)
[3] = target: Human GIPR-turbo GFP (human) (UniProt P48546); remark: listed apart in the source
[4] = target: Human GLP-1R-GFP (human) (UniProt P43220); remark: listed apart in the source
[5] = target: T1, human GIPR (Homo sapiens, UniProt P48546); experiment: Gαs (mini-G) recruitment BRET assay, GIPR; format: cell-based; conditions: HEK293T, GIPR-GFP + NLuc-mini-G, +iAUC 60 min
T1 sequence (P48546 22-466): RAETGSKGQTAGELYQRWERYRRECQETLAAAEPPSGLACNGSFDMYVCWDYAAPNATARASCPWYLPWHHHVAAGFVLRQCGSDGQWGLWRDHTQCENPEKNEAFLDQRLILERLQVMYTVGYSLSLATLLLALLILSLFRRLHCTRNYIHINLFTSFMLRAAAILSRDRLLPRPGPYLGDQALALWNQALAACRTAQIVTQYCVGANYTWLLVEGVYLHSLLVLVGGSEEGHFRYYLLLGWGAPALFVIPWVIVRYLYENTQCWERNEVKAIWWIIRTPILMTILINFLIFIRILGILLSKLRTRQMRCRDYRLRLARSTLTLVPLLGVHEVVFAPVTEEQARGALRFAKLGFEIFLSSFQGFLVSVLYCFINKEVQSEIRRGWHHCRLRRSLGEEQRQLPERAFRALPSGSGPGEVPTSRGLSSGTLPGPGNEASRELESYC

[6] = target: T1, human GIPR; experiment: GPCR internalization assay (loss of BRET with Venus-KRAS), GIPR; format: cell-based; conditions: HEK293T, hGIPR-Rluc8 + Venus-KRAS, iAUC 20 min
[7] = target: T2, human GLP-1R (Homo sapiens, UniProt P43220); experiment: GPCR internalization assay (loss of BRET with Venus-KRAS), GLP-1R; format: cell-based; conditions: HEK293T, hGLP-1R-Rluc8 + Venus-KRAS, iAUC 60 min
T2 construct: host or cells: HEK293T
T2 sequence (P43220 24-463): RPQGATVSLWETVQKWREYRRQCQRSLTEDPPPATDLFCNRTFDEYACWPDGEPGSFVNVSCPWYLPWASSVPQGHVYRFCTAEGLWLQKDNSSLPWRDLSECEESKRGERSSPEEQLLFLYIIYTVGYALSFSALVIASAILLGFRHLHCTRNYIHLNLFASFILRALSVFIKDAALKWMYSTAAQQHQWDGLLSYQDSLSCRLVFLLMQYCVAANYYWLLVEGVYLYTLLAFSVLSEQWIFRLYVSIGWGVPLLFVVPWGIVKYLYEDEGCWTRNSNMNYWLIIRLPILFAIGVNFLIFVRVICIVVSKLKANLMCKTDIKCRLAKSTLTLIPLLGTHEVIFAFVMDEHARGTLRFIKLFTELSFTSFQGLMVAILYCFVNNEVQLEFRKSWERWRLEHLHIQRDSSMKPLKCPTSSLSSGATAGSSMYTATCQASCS

[8] = target: T1, human GIPR; experiment: cAMP assay (CAMYEL BRET sensor), GIPR; format: cell-based; conditions: HEK293T, GIPR, CAMYEL sensor, no IBMX, +iAUC 25 min
Experimental: (§1) The cells were seeded (700,000 cells/well) in 6-well plates and incubated to ∼70% confluency in complete media supplemented with 10% FBS and 1% Pen-Strep. […] Baseline measurements were taken after 5 min of incubation with coelenterazine-h or NanoGlo. The cells were then treated with a vehicle or the respective agonists. […] The temporal data of the vehicle-corrected agonist measurement was then normalized to the baseline reading of the same well. The first BRET reading following treatment with agonist/vehicle was the subsequent measurement after the zero time point. Positive or negative incremental areas under the curves (+iAUC/-iAUC) were calculated where noted. Each experiment was independently performed at least three times, with at least two technical replicates for each group.
(§2) CAMYEL, a cAMP sensor using YFP-Epac-RLuc was utilized to quantify cAMP accumulation with the temporal resolution. Then, 500 ng of CAMYEL DNA was co-transfected with 500 ng of DNA of untagged GLP-1R or GIPR per well in a 6-well plate. The experiments were performed in the absence of 3-isobutyl-1-methylxanthine (IBMX).
(§3) Data are represented as means ± S.E.M. Each experiment was independently conducted at least three times, each with at least two technical replicates. […] Dose responses were fitted using non-linear regression. pEC50 and EC50 values were calculated using GraphPad Prism 8.0 (GraphPad, San Diego, CA, USA). Statistical analyses were calculated in GraphPad 8.0 using one-way analysis of variance (ANOVA) and corrected with Tukey's or Bonferroni's multiple comparison test. Differences are considered significant with an adjusted p value < 0.05.

[9] = target: T1, human GIPR; experiment: β-arrestin 2 recruitment BRET assay, GIPR; format: cell-based; conditions: HEK293T, GIPR-GFP + β-arrestin2-RLUC8, BRET, +iAUC 30 min
Experimental: as §1
(§4) Co-localization of β-arrestin1/2-RLUC8 with GLP-1R-GFP or GIPR-GFP was assessed.
as §3

[10] = target: T1, human GIPR; experiment: Gαq (mini-G) recruitment BRET assay, GIPR; format: cell-based; conditions: HEK293T, GIPR-GFP + NLuc-mini-G, +iAUC 60 min
[11] = target: T2, human GLP-1R; experiment: β-arrestin 2 recruitment BRET assay, GLP-1R; format: cell-based; conditions: HEK293T, GLP-1R-GFP + β-arrestin2-RLUC8, BRET, +iAUC 30 min
Experimental: as §1, §4
as §3, with “Differences are considered significant with an adjusted p value < 0.05.” left out

[12] = target: T2, human GLP-1R; experiment: Gαq (mini-G) recruitment BRET assay, GLP-1R; format: cell-based; conditions: HEK293T, GLP-1R-GFP + NLuc-mini-G, +iAUC 60 min
[13] = target: T2, human GLP-1R; experiment: Gαs (mini-G) recruitment BRET assay, GLP-1R; format: cell-based; conditions: HEK293T, GLP-1R-GFP + NLuc-mini-G, +iAUC 60 min
[14] = target: T2, human GLP-1R; experiment: β-arrestin 1 recruitment BRET assay, GLP-1R; format: cell-based; conditions: HEK293T, GLP-1R-GFP + β-arrestin1-RLUC8, BRET, +iAUC 30 min
Experimental: as §1, §4
as §3, with “Differences are considered significant with an adjusted p value < 0.05.” left out

[15] = target: T1, human GIPR; experiment: β-arrestin 1 recruitment BRET assay, GIPR; format: cell-based; conditions: HEK293T, GIPR-GFP + β-arrestin1-RLUC8, BRET, +iAUC 30 min
Experimental: as §1, §4, §3

[16] = target: T2, human GLP-1R; experiment: cAMP assay (CAMYEL BRET sensor), GLP-1R; format: cell-based; conditions: CAMYEL sensor, no IBMX, mean ± SEM, at least 3 experiments, SEM
Experimental: as §1, §2, §3

[17] = read-out: Receptor Internalization EC50
[18] = read-out: β-arr2 Recruitment EC50
[19] = HEK-293T, mean ± SEM, at least 3 experiments, SEM
[20] = read-out: β-arr1 Recruitment EC50

Human GLP-1R-GFP (human), sequence (P43220 24-463): as above

## MAR709 (peptide)
[1]
  GIPR co-localization with Rab5^+ endosomes (BRET of hGIPR-Rluc8 with Venus-Rab5, HEK293T), % of the response to GIP (1–42), fatty acyl-GIP and tirzepatide: 66%
[2]
  GLP-1R co-localization with Rab5 early endosomes (BRET of hGLP-1R-Rluc8 with Venus-Rab5, HEK293T), 1 μM, % of GLP-1 (7–36 amide): 68%
  GLP-1R co-localization with Rab7 late endosomes (BRET of hGLP-1R-Rluc8 with Venus-Rab7, HEK293T), % of GLP-1 (7–36 amide): 62%
[3]
  GIPR internalization Emax, % of GIP (1–42) (loss of BRET between hGIPR-Rluc8 and Venus-KRAS, HEK293T): 4%
[4]
  GLP-1R internalization Emax, % of GLP-1 (7–36 amide) (loss of BRET between hGLP-1R-Rluc8 and Venus-KRAS, HEK293T): 51%

## CCCCCCCCCCCCCCCC(=O)NCCCC[C@H](NC(=O)[C@H](CO)NC(=O)[C@@H]1CCCN1C(=O)[C@@H]1CCCN1C(=O)[C@@H]1CCCN1C(=O)[C@H](C)NC(=O)CNC(=O)[C@H](CO)NC(=O)[C@H](CO)NC(=O)[C@@H]1CCCN1C(=O)CNC(=O)CNC(=O)[C@H](C)NC(=O)[C@H](CC(C)C)NC(=O)[C@H](CC(C)C)NC(=O)[C@H](Cc1c[nH]c2ccccc12)NC(=O)[C@H](CC(N)=O)NC(=O)[C@@H](NC(=O)[C@H](Cc1ccccc1)NC(=O)[C@H](CCC(=O)O)NC(=O)C(C)(C)NC(=O)[C@H](C)NC(=O)[C@H](C)NC(=O)[C@H](CCC(N)=O)NC(=O)[C@H](CCCCN)NC(=O)[C@H](CC(=O)O)NC(=O)[C@H](CC(C)C)NC(=O)[C@H](Cc1ccc(O)cc1)NC(=O)[C@@H](NC(=O)[C@H](CO)NC(=O)[C@@H](NC(=O)[C@H](CC(=O)O)NC(=O)[C@H](CO)NC(=O)[C@@H](NC(=O)[C@H](Cc1ccccc1)NC(=O)[C@@H](NC(=O)CNC(=O)[C@H](CCC(=O)O)NC(=O)C(C)(C)NC(=O)[C@@H](N)Cc1c[nH]cn1)[C@@H](C)O)[C@@H](C)O)C(C)C)[C@@H](C)CC)C(C)C)C(N)=O [fatty acyl-GLP-1]
[5]; mean ± SEM, read-out: Gαs Recruitment pEC50 (converted)
  EC50: > 1 µM
[5]; read-out: Gαs Recruitment EC50
  EC50: > 1 µM
[6]; mean ± SEM, read-out: Receptor Internalization pEC50 (converted)
  EC50: > 1 µM
[6]; [17]
  EC50: > 1 µM
[7]; [17]
  EC50: 0.49 µM
[7]; HEK-293T, mean ± SEM, at least 3 experiments, SEM, read-out: Receptor Internalization Emax (% GLP-1)
  Emax: 108 ± 4%
[8]; mean ± SEM, read-out: cAMP pEC50 (converted)
  EC50: > 1 µM
[8]; read-out: cAMP EC50
  EC50: > 1 µM
[9]; mean ± SEM, read-out: β-arr2 Recruitment pEC50 (converted)
  EC50: > 1 µM
[9]; [18]
  EC50: > 1 µM
[10]; mean ± SEM, read-out: Gαq Recruitment pEC50 (converted)
  EC50: > 1 µM
[10]; read-out: Gαq Recruitment EC50
  EC50: > 1 µM
[11]; [18]
  EC50: 0.188 µM
[11]; HEK-293T, mean ± SEM, at least 3 experiments, SEM, read-out: β-arr2 Recruitment Emax (% GLP-1)
  Emax: 86 ± 3%
[12]
  EC50: 0.305 µM
[12]; [19]
  Emax: 101 ± 5%
[13]
  EC50: 0.423 µM
[13]; [19]
  Emax: 98 ± 5%
[14]; [20]
  EC50: 0.358 µM
[14]; HEK-293T, mean ± SEM, at least 3 experiments, SEM, read-out: β-arr1 Recruitment Emax (% GLP-1)
  Emax: 88 ± 4%
[15]; [20]
  EC50: > 1 µM
[15]; read-out: β-arr1 Recruitment pEC50 (converted)
  EC50: > 1 µM
[16]; HEK293T, GLP-1R, +iAUC 25 min, read-out: cAMP pEC50 (converted)
  EC50: 0.000363 µM
[16]; HEK-293T, HEK293T transiently expressing untagged GLP-1R, +iAUC of 25 min response, 3-parameter fit
  Emax: 99 ± 3%
